Assays:
Assay in all cases: Enzyme Assay
PIK3CG (human) = PIK3CG (human) (UniProt P48736)
PIK3CD (Human) = PIK3CD (Human) (UniProt O00329)
PIK3CA (human) = PIK3CA (human) (UniProt P42336)
PIK3CB (Human) = PIK3CB (Human) (UniProt P42338)
Sequence of PIK3CB (Human) (P42338 whole entry, looked up): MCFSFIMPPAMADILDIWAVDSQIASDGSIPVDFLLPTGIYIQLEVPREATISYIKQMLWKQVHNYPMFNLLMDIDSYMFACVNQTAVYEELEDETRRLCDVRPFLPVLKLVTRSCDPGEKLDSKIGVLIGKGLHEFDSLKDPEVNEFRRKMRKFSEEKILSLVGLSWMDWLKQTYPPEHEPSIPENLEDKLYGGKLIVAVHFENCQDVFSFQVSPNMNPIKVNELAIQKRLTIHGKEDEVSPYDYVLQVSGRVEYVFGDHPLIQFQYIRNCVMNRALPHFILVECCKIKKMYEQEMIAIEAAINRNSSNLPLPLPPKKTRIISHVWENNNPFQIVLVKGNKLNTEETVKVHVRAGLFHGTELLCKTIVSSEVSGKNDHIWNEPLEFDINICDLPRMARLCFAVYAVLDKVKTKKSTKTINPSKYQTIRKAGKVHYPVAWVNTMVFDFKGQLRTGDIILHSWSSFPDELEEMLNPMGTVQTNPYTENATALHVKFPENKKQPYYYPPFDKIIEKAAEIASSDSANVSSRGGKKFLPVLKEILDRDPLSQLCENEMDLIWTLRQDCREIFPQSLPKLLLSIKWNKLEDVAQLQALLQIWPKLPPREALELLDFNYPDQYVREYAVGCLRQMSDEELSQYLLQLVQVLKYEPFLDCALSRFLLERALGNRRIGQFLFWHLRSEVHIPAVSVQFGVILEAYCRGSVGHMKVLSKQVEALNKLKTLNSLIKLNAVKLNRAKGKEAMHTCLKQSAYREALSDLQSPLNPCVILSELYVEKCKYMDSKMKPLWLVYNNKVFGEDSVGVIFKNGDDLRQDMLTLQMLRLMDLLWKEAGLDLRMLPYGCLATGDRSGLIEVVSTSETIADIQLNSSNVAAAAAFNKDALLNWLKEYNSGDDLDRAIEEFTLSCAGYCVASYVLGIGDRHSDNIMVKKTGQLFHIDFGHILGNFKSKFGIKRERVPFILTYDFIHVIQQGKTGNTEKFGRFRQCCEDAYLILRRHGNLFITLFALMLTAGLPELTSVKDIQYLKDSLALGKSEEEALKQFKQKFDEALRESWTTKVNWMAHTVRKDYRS

Sequence of PIK3CG (human) (P48736 whole entry, looked up): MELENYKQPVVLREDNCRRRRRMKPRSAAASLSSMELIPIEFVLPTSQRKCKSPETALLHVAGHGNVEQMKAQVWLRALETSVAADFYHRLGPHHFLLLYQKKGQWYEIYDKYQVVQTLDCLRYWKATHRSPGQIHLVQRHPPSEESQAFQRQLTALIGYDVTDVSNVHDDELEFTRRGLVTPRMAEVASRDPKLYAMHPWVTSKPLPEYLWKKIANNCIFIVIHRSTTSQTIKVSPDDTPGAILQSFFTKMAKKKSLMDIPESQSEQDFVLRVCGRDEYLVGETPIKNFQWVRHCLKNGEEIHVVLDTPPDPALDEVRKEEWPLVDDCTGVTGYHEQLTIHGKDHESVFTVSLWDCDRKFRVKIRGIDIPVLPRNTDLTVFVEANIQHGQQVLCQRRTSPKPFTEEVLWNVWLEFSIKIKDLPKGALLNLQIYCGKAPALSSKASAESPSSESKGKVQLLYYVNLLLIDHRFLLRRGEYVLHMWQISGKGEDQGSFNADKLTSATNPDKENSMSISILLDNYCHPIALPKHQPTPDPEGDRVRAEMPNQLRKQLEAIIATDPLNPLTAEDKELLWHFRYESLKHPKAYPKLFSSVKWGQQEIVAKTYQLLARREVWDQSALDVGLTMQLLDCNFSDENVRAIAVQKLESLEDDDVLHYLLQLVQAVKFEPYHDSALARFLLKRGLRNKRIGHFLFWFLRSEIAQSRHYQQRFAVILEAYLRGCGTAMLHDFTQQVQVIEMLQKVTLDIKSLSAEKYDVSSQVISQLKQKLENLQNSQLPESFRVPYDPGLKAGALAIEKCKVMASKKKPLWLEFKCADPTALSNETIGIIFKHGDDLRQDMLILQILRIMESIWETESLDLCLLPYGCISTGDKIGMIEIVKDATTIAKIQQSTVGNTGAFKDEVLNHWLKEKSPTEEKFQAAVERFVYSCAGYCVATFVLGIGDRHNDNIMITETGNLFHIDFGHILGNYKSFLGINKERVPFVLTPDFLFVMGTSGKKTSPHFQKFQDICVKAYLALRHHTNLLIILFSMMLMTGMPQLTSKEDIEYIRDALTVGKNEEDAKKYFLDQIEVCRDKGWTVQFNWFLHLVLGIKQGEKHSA
Sequence of PIK3CA (human) (P42336 whole entry, looked up): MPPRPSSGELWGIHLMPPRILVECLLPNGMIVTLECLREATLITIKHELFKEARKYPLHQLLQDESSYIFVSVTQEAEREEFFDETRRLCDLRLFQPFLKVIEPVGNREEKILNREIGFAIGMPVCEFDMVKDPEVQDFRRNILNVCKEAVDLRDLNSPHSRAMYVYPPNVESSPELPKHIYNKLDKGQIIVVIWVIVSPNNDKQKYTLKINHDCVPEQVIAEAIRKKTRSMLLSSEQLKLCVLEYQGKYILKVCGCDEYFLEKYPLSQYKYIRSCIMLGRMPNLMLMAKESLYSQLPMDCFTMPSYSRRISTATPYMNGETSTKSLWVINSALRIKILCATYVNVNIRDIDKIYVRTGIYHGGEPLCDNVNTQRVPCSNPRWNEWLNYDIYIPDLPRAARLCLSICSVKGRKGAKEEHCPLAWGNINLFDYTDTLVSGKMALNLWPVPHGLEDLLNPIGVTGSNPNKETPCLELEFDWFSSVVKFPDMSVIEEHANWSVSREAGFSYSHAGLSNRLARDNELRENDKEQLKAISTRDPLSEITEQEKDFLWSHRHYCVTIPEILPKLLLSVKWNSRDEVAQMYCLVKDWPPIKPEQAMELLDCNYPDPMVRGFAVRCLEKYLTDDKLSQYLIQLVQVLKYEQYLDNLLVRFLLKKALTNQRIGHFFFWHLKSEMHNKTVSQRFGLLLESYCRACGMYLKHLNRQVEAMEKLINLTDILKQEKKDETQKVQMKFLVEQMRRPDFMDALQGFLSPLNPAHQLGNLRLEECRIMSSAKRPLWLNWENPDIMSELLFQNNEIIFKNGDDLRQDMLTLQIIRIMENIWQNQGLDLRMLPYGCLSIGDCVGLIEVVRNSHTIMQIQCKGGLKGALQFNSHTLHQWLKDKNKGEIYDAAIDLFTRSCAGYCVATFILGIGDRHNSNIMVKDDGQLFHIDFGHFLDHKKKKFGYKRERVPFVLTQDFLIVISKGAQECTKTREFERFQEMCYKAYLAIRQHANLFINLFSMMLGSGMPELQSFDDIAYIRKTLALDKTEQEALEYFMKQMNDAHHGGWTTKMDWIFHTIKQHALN
Sequence of PIK3CD (Human) (O00329 whole entry, looked up): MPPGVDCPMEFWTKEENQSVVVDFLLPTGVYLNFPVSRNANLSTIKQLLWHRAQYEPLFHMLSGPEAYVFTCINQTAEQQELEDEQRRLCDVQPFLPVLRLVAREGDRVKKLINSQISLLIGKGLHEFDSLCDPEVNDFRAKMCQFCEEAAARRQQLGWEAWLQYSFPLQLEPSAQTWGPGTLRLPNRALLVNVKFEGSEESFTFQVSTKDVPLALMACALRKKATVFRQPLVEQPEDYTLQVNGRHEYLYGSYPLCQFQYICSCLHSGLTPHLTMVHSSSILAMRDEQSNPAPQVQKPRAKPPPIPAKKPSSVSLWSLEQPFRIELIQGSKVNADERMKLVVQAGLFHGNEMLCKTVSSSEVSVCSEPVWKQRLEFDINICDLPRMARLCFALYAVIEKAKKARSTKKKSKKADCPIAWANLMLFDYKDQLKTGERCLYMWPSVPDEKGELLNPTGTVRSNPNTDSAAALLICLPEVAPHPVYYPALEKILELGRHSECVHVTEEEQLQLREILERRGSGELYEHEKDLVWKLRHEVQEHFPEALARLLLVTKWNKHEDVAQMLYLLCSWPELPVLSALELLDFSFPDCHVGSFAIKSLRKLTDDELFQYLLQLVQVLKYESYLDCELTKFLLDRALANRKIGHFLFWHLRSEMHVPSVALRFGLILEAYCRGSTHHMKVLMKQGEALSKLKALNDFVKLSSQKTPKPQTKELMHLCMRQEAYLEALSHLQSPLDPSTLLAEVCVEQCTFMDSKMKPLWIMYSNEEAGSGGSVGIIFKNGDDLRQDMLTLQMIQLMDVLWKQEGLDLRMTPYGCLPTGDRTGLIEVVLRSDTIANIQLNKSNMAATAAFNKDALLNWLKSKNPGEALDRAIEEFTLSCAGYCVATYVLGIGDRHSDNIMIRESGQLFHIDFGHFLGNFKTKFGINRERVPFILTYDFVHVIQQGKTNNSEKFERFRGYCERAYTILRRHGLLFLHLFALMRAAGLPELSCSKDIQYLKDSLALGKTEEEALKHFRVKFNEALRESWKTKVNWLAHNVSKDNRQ

Row | Structure (SMILES) | IC50 (PIK3CG (human)) [nM] | IC50 (PIK3CD (Human)) [nM] | IC50 (PIK3CA (human)) [nM] | IC50 (PIK3CB (Human)) [nM]
1 | Cc1c(-c2cccc3cc([C@H](C)Nc4ncnc5scnc45)n(-c4ccccc4)c(=O)c23)cnn1C | 100 to 1000 | < 100 |  | 
2 | C[C@H](Nc1ncnc2scnc12)c1cc2cccc(-c3ccoc3)c2c(=O)n1-c1ccccc1 | < 100 | < 100 | 100 to 1000 | 
3 | C[C@H](Nc1ncnc2scnc12)c1cc2cccc(-c3ccc(N(C)C)nc3)c2c(=O)n1-c1ccccc1 | < 100 | < 100 |  | > 10000
4 | C[C@H](Nc1ncnc2scnc12)c1cc2cccc(-c3cnc(N)nc3)c2c(=O)n1-c1ccccc1 | < 100 | < 100 | 100 to 1000 | 
5 | Cc1cc(-c2cccc3cc([C@H](C)Nc4ncnc5scnc45)n(-c4ccccc4)c(=O)c23)cnc1C | < 100 | < 100 |  | 
6 | COc1ncc(-c2cccc3cc([C@H](C)Nc4ncnc5scnc45)n(-c4ccccc4)c(=O)c23)s1 | < 100 | < 100 | 100 to 1000 | 
7 | Cc1sc2ncnc(N[C@@H](C)c3cc4cccc(Cl)c4c(=O)n3-c3ccccc3)c2c1C |  | < 100 | > 10000 | > 10000
8 | COc1ncc(-c2cccc3cc([C@H](C)Nc4ncnc5scnc45)n(-c4ccccc4)c(=O)c23)cc1C(F)(F)F | < 100 | < 100 |  | 
9 | COc1cnccc1-c1cccc2cc([C@H](C)Nc3ncnc4scnc34)n(-c3ccccc3)c(=O)c12 | 100 to 1000 | 100 to 1000 |  | 
10 | Cc1nsc2cc(C(C)Nc3ncnc4scnc34)n(-c3ccccc3)c(=O)c12 (stereo unspecified) |  | < 100 | > 10000 | 
11 | C[C@H](Nc1ncnc2scnc12)c1cc2cccc(-c3cnc(OCc4ccccc4)nc3)c2c(=O)n1-c1ccccc1 | 100 to 1000 | < 100 |  | 
12 | COc1ncc(-c2cccc3cc([C@H](C)Nc4ncnc5scnc45)n(-c4ccccc4)c(=O)c23)cc1C | < 100 | < 100 |  | 
13 | CCn1cc(-c2cccc3cc([C@H](C)Nc4ncnc5scnc45)n(-c4ccccc4)c(=O)c23)cn1 | < 100 | < 100 |  | 
14 | Cc1cccc2cc([C@H](C)Nc3ncnc4scnc34)n(-c3cccc(F)c3)c(=O)c12 | < 100 | < 100 |  | 100 to 1000
15 | Cc1ccc(-c2cccc3cc([C@H](C)Nc4ncnc5scnc45)n(-c4ccccc4)c(=O)c23)cn1 | < 100 | < 100 |  | 
16 | C[C@H](Nc1ncnc2scnc12)c1cc2cccc(C(=O)O)c2c(=O)n1-c1ccccc1 |  |  | > 10000 | > 10000
17 | C[C@H](Nc1ncnc2scnc12)c1cc2cccc(-c3cnc4c(c3)CCCC4)c2c(=O)n1-c1ccccc1 |  |  | > 10000 | > 10000
18 | Cc1cc(-c2cccc3cc([C@H](C)Nc4ncnc5scnc45)n(-c4ccccc4)c(=O)c23)ccn1 | < 100 | < 100 | 100 to 1000 | 
19 | C[C@H](Nc1ccnc2scnc12)c1cc2cccc(-c3cnn(C)c3)c2c(=O)n1-c1ccccc1 | < 100 | < 100 |  | 
20 | C[C@H](Nc1ncnc2scnc12)c1cc2cccc(-c3ccc(=O)n(C)c3)c2c(=O)n1-c1ccccc1 | 100 to 1000 | < 100 | 100 to 1000 | 
21 | C[C@H](Nc1ccnc2scnc12)c1cc2cccc(Cl)c2c(=O)n1-c1cccc(F)c1 | < 100 | < 100 |  | 100 to 1000
22 | C[C@H](Nc1ncnc2scnc12)c1cc2cccc(-c3cnn(C)c3)c2c(=O)n1-c1cccc(F)c1 | < 100 | < 100 |  | 

Row | Structure (SMILES) | IC50 (PIK3CG (human)) [nM] | IC50 (PIK3CD (Human)) [nM] | IC50 (PIK3CA (human)) [nM] | IC50 (PIK3CB (Human)) [nM]
23 | C[C@H](Nc1ncnc2scnc12)c1cc2cccc(-c3cn[nH]c3)c2c(=O)n1-c1ccccc1 | < 100 | < 100 |  | 
24 | C[C@H](Nc1ncnc2scnc12)c1cc2cccc(-c3cnc4ccoc4c3)c2c(=O)n1-c1ccccc1 | < 100 | < 100 | 100 to 1000 | 
25 | C[C@H](Nc1ncnc2scnc12)c1cc2cccc(-c3cncnc3)c2c(=O)n1-c1ccccc1 | < 100 | < 100 |  | 
26 | C[C@H](Nc1ncnc2scnc12)c1cc2scc(-c3cnn(C)c3)c2c(=O)n1-c1ccccc1 | 100 to 1000 | 100 to 1000 |  | > 10000
27 | C[C@H](Nc1ncnc2scnc12)c1cc2cccc(-c3cnc4c(c3)CCCO4)c2c(=O)n1-c1ccccc1 | < 100 | < 100 | 100 to 1000 | 
28 | C[C@H](Nc1ncnc2scnc12)c1cc2cccc(-c3ccnnc3)c2c(=O)n1-c1ccccc1 | < 100 | < 100 |  | > 10000
29 | COc1ncc(-c2cccc3cc([C@H](C)Nc4ncnc5scnc45)n(-c4cccc(F)c4)c(=O)c23)cn1 | 100 to 1000 | < 100 |  | > 10000
30 | CCCn1cc(-c2cccc3cc([C@H](C)Nc4ncnc5scnc45)n(-c4ccccc4)c(=O)c23)cn1 | 100 to 1000 | < 100 |  | 
31 | C[C@H](Nc1ncnc2scnc12)c1cc2cccc(-c3ccncc3)c2c(=O)n1-c1ccccc1 | < 100 | < 100 | 100 to 1000 | 
32 | C[C@H](Nc1ncnc2scnc12)c1cc2cccc(-c3cnn(C)c3)c2c(=O)n1C |  | 100 to 1000 |  | 
33 | C[C@H](Nc1ncnc2scnc12)c1cc2cccc(-c3cncc(F)c3)c2c(=O)n1-c1ccccc1 | < 100 | < 100 |  | > 10000
34 | COc1ccc(-c2cccc3cc([C@H](C)Nc4ncnc5scnc45)n(-c4ccccc4)c(=O)c23)cc1 | < 100 | < 100 |  | 
35 | CC(C)n1cc(-c2cccc3cc([C@H](C)Nc4ncnc5scnc45)n(-c4ccccc4)c(=O)c23)cn1 | 100 to 1000 | < 100 |  | > 10000
36 | C[C@H](Nc1ncnc2scnc12)c1cc2cccc(Cl)c2c(=O)n1C | < 100 | < 100 |  | < 100
37 | Cc1cc(-c2cccc3cc([C@H](C)Nc4ncnc5scnc45)n(-c4ccccc4)c(=O)c23)cnc1F | < 100 | < 100 |  | 
38 | C[C@H](Nc1ncnc2scnc12)c1cc2cccc(/C=C/c3ccccc3)c2c(=O)n1-c1ccccc1 | < 100 | 100 to 1000 |  | 
39 | Cc1nc2c(N[C@@H](C)c3cc4cccc(-c5cnn(C)c5)c4c(=O)n3-c3ccccc3)ncnc2s1 |  |  | > 10000 | > 10000
40 | C[C@H](Nc1ncnc2scnc12)c1cc2scc(Cl)c2c(=O)n1-c1ccccc1 | < 100 | < 100 |  | < 100
41 | C[C@H](Nc1ncnc2scc(-c3ccccc3)c12)c1cc2cccc(Cl)c2c(=O)n1-c1ccccc1 |  | 100 to 1000 | > 10000 | > 10000
42 | C[C@H](Nc1ncnc2scnc12)c1cc2cccc(C=O)c2c(=O)n1-c1ccccc1 | < 100 | < 100 |  | 100 to 1000
43 | Cc1ncc(-c2cccc3cc([C@H](C)Nc4ncnc5scnc45)n(-c4ccccc4)c(=O)c23)cn1 | 100 to 1000 | < 100 |  | > 10000
44 | C[C@H](Nc1ncnc2scnc12)c1cc2cccc(Cl)c2c(=O)n1-c1cccc(C(F)(F)F)c1 | 100 to 1000 | 100 to 1000 | > 10000 | 

Row | Structure (SMILES) | IC50 (PIK3CG (human)) [nM] | IC50 (PIK3CD (Human)) [nM] | IC50 (PIK3CA (human)) [nM] | IC50 (PIK3CB (Human)) [nM]
45 | COc1ccccc1-c1cccc2cc([C@H](C)Nc3ncnc4scnc34)n(-c3ccccc3)c(=O)c12 | 100 to 1000 | < 100 |  | 
46 | C[C@H](Nc1ncnc2scnc12)c1cc2cccc(-c3ccc(F)c(F)c3)c2c(=O)n1-c1ccccc1 | < 100 | < 100 |  | > 10000
47 | COc1cc(-c2cccc3cc([C@H](C)Nc4ncnc5scnc45)n(-c4ccccc4)c(=O)c23)ccn1 | < 100 | < 100 | 100 to 1000 | 
48 | Cc1ccnc2cc(C(C)Nc3ncnc4scnc34)n(-c3ccccc3)c(=O)c12 (stereo unspecified) | < 100 | < 100 | > 10000 | 
49 | Cc1nn(C)cc1-c1cccc2cc([C@H](C)Nc3ncnc4scnc34)n(-c3ccccc3)c(=O)c12 | < 100 | < 100 | 100 to 1000 | 
50 | Cc1ncc(-c2cccc3cc([C@H](C)Nc4ncnc5scnc45)n(C4CC4)c(=O)c23)cn1 | 100 to 1000 | < 100 |  | 
51 | COc1ncc(-c2cccc3cc([C@H](C)Nc4ncnc5scnc45)n(C4CC4)c(=O)c23)cn1 | 100 to 1000 | < 100 |  | 
52 | COc1cccc(-c2cccc3cc([C@H](C)Nc4ncnc5scnc45)n(-c4ccccc4)c(=O)c23)c1 | < 100 | < 100 | 100 to 1000 | 
53 | C[C@H](Nc1ncnc2scnc12)c1cc2cccc(-c3cccnc3)c2c(=O)n1-c1ccccc1 | < 100 | < 100 |  | 
54 | C[C@H](Nc1ncnc2scnc12)c1cc2cccc(-c3cccc(N(C)C)c3)c2c(=O)n1-c1ccccc1 | < 100 | < 100 | 100 to 1000 | 
55 | C[C@H](Nc1ncnc2scnc12)c1cc2ccccc2c(=O)n1-c1ccccc1 | < 100 | < 100 |  | 
56 | Cc1cncc(-c2cccc3cc([C@H](C)Nc4ncnc5scnc45)n(-c4ccccc4)c(=O)c23)c1 | < 100 | < 100 | 100 to 1000 | 
57 | C[C@H](Nc1ncnc2scnc12)c1cc2cccc(-c3ccc(N)nc3)c2c(=O)n1-c1ccccc1 | < 100 | < 100 | 100 to 1000 | 
58 | C[C@H](Nc1nc(Cl)nc2scnc12)c1cc2cccc(-c3cnn(C)c3)c2c(=O)n1-c1ccccc1 | 100 to 1000 | < 100 |  | 
59 | C[C@H](Nc1ncnc2scnc12)c1cc2cccc(-c3ccnc(C(F)(F)F)c3)c2c(=O)n1-c1ccccc1 | 100 to 1000 | < 100 |  | 
60 | C[C@H](Nc1ncnc2scnc12)c1cc2cccc(-c3cnn(CCN4CCOCC4)c3)c2c(=O)n1-c1ccccc1 | < 100 | < 100 |  | > 10000
61 | CCCCc1cccc2cc([C@H](C)Nc3ncnc4scnc34)n(-c3ccccc3)c(=O)c12 | < 100 | < 100 |  | 
62 | COc1ncc(-c2cccc3cc([C@H](C)Nc4ccnc5scnc45)n(-c4ccccc4)c(=O)c23)cn1 | 100 to 1000 | < 100 |  | > 10000
63 | COc1ccc(-c2cccc3cc([C@H](C)Nc4ncnc5scnc45)n(-c4ccccc4)c(=O)c23)cn1 | < 100 | < 100 |  | 
64 | CC(C)Cn1cc(-c2cccc3cc([C@H](C)Nc4ncnc5scnc45)n(-c4ccccc4)c(=O)c23)cn1 | 100 to 1000 | < 100 |  | > 10000
